Measured values taken from patent publication US8962558B2, “Methods for reducing GnRH-positive tumor cell proliferation using the GnRH antagonist IN3” (priority 1997, dated 2015).
Square brackets hold non-standard residues; d marks the D form. Peptide text beside a SMILES is read from it. * marks the point of attachment. Tyr(3-I) = N[C@@H](Cc1ccc(O)c(I)c1)C(=O)O; pGlu = O=C1CC[C@@H](C(=O)O)N1; azaGly = NNC(=O)O; tBu = CC(C)(C)*

What was measured:
[1] = test system: malignant gliomas U-87MG and U-373MG; test: In vivo study with tumor-implanted nude mice (Example 4); conditions: daily dosages
Experimental: An effect of the treatment of tumor-implanted nude mice (Pinski et al., supra) each with one of the GnRH agonists Buserelin, Triptorelin, Goserelin, and Leuprorelin and each with one of the GnRH antagonists Cetrorelix® (SB-75), Antarelix®, Antide®, and Ramorelix® on the growth of malignant gliomas U-87MG and U-373MG was carried out using daily dosages and controls in nude mice using analysis techniques described for the determination of the efficacy of similar peptides in Pinski et al., supra.

[2] = test system: ovarian carcinoma cell lines; conditions: 10^−5 M, day 6; cited from earlier work
[3] = test system: human glioblastoma cell lines U-87MG or U-373MG, Kaposi sarcoma cell lines KSY-1 or KS-SLK, malignant melanoma cell line MV3 or BLM, medulloblastoma cell line …; test: Proliferation assay on cell cultures (Example 3); format: cell-based; conditions: cell lines of Example 3 treated with the substance
Experimental: A human cell line, such as the well known human glioblastoma cell lines U-87MG or U-373MG (Pinski et al., supra), or a human cell line such as the well known Kaposi sarcoma cell lines KSY-1 or KS-SLK (Parkash et al., 1996, New England Journal of Medicine, 335, 17, 1261-1269), or a human cell line such as the well known human malignant melanoma cell line MV3 or BLM (Goldbrunner, R. H., et al., 1996, Anticancer Research 16 (6B), 3679-87), or a human medulloblastoma cell line such as the well known cell line Daoy or D283 MED (Stockhammer et al., 1995, J. Neurosurgery, 83, 672-681), or human meningeoma cell cultures (Boyle-Wash, E., et al., 1995, Journal of Endocrinology, 145, 155-161), are cultured as previously described for the above-mentioned cell lines and then treated with a concentration of the GnRH agonist Triptorelin®, GnRH antagonist SB-75 (Cetrorelix®) or GnRH antagonist Ramorelix®. […]
In another embodiment, the above-mentioned cell lines are treated as described by Emons, G., et al., 1993, supra, and Irmer, G., 1995, supra, with a concentration of the GnRH peptide antagonist Ac-D-Nal(2)-D-4-ClPhe-D-Pal-Ser-1-MePal-D-IsopropylLys-Leu-IsopropylLys-Pro-D-AlaNH2 (also known as Ant 135-25; the Mepal portion is known as 1-Methyl-3-[3′-pyridyl]-alanine), Teverelix (also known as Antarelix®), Cetrorelix (also known as Cetrotide®), Abarelix (also known as Plenaxis®), D-63153 (also known as Ozarelix®), acyline, azaline B, antide (also known as Iturelix®), Degarelix (FE200486), Ganirelix, Nal-Glu, Orntide (also known as Ornirelix®), Elagolix, or with antagonist peptidomimetic ((2S)-2-[5-[2-(2-azabicyclo[2,2,2]oct-2-yl)-1,1-dimethyl-2-oxoethyl]-2-(3,5-dimethylphenyl)-1H-indol-3-yl]-N-(2-pyridin-4-ylethyl-)propan-1-amine (also known as “IN3”).
In another embodiment, the cell lines used above were each additionally treated with a second GnRH antagonist, namely one of the GnRH antagonists Cetrorelix®, Ant 135-25, IN3, degarelix, Antarelix®, Antide®, and Ramorelix® or alternatively with one of the GnRH antagonists that have been disclosed in U.S. Pat. Nos. 6,939,88, 6,200,957, 5,296,468, 4,851,385, 7,361,633, 7,288,517, WO/2009/106597 or PCT/EP2009/052326, U.S. Pat. Nos. 5,480,969, 5,198,533, or UK Patent GB 2 246782 B, wherein these additional treatment procedures were carried out in a manner similar to those reported in Emons et al., supra, using SB 75 (Cetrorelix®). […]

[4] = target: T1, LHRH receptors in BLM melanoma cells (Homo sapiens, UniProt P30968); test: 125I-LHRH-A binding to BLM cell membranes
T1 construct: endogenous in cells; host or cells: BLM human melanoma cells (membranes)
T1 sequence (P30968 1-328): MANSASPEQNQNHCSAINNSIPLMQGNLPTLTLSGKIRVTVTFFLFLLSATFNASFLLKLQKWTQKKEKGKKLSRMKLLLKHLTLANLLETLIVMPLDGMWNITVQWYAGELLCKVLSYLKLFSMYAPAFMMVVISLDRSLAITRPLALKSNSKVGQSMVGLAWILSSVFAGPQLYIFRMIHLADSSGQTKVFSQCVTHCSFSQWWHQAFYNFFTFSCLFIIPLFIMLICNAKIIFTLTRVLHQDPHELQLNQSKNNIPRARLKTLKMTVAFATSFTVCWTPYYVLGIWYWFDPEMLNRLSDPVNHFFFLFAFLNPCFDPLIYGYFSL
Experimental: (§1) GnRH receptors in melanoma cells have been analyzed also in terms of binding parameters.
(§2) Binding characteristics were evaluated from displacement curves as described in Materials and Methods.

[5] = target: T2, LHRH receptors in Me15392 melanoma cells (Homo sapiens, UniProt P30968); test: 125I-LHRH-A binding to Me15392 cell membranes
T2 construct: endogenous in cells; host or cells: Me15392 human melanoma cells (membranes)
T2 sequence (P30968 1-328): T1 sequence (P30968 1-328)
Experimental: as §1, §2

[6] = target: T3, LHRH receptors in rat pituitaries (Rattus norvegicus, UniProt P30969); test: 125I-LHRH-A binding to rat pituitaries (control)
T3 construct: from tissue; host or cells: rat pituitary
T3 sequence (P30969 1-327): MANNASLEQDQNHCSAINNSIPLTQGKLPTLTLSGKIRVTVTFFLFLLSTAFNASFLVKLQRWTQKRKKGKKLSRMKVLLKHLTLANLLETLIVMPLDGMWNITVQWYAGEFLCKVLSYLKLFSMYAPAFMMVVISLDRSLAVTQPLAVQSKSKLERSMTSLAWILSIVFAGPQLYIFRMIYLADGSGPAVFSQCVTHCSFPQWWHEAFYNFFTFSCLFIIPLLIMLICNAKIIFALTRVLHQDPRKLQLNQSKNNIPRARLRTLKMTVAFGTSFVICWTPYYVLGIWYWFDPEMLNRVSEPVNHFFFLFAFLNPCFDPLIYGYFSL
Experimental: as §1, §2

[7] = test system: small cell lung carcinoma cell lines NCI-H1688, NCI-H1417, NCI-H1672, NCI-H1836, DMS-79, DM-553, DMS-114, SW-1271, NCI-H2227, NCI-HI1963, SHP-77 and H-69 AR; test: Proliferation assay on small cell lung carcinoma cell lines (Example 3); format: cell-based, human; conditions: small cell lung carcinoma cell lines treated with the substance
Experimental: In another embodiment, the small cell lung carcinoma cell lines NCI-H1688, NCI-H1417, NCI-H1672, NCI-H1836, DMS-79, DM-553, DMS-114, SW-1271, NCI-H2227, NCI-HI1963 and SHP-77 in addition to the multidrug-resistant small cell lung carcinoma cell line H-69 AR, are cultured as described above and then treated as described by Emons, G., et al., 1993, supra, and Irmer, G., 1995, supra, with various concentrations of the GnRH agonists (D-Lys6)-GnRH, Lutrelin, Histrelin, Nafarelin, Azagly-Nafarelin, Deslorelin, Cystorelin, Decapeptyl, Gonadorelin, GnRH, D-Lys(6)-GnRH II, Lamprey GnRH II, (D-Lys6)-Lamprey GnRH, (D-Lys6)-Lamprey GnRH II and Lamprey GnRH III.
In another embodiment, the small cell lung carcinoma cell lines NCI-H1688, NCI-H1417, NCI-H1672, NCI-H1836, DMS-79, DM-553, DMS-114, SW-1271, NCI-H2227, NCI-HI1963 and SHP-77 in addition to the multidrug-resistant small cell lung carcinoma cell line H-69 AR, are cultured as described above for the above-mentioned cell lines, and then treated as described by Emons, G., et al., 1993, supra, and Irmer, G., 1995, supra, with a concentration of the GnRH antagonist Cetrorelix (also known as Cetrotide®) or with a GnRH peptide antagonist Ac-D-Nal(2)-D-4-ClPhe-D-Pal-Ser-1-MePal-D-IsopropylLys-Leu-IsopropylLys-Pro-D-AlaNH2 wherein Mepal is 1-Methyl-3-[3′-pyridyl]-alanine or Ant 135-25 (also known as Ac-D-Nal(2)-D-4-Cl-Phe-D-Pal-Ser-1-MePal-D-IsopropylLys-Leu-IsopropylLys-Pro-D-AlaNH2), Teverelix (also known as Antarelix®), Cetrorelix (also known as Cetrotide®), Abarelix (also known as Plenaxis®), D-63153 (also known as Ozarelix®), acyline, azaline B, antide (also known as Iturelix®), Degarelix (FE200486), Ganirelix, Nal-Glu, Orntide (also known as Ornirelix®) or with antagonist peptidomimetic ((2S)-2-[5-[2-(2-azabicyclo[2,2,2]oct-2-yl)-1,1-dimethyl-2-oxoethyl]-2-(3,5-dimethylphenyl)-1H-indol-3-yl]-N-(2-pyridin-4-ylethyl-)propan-1-amine (also known as “IN3”).

BLM human melanoma cells = test: Proliferation of BLM human melanoma cells (Example 20); format: cell-based; conditions: 5×10^−5M
Text: The effects of the GnRH agonist (D-Lys6)-GnRH, Gossypol, the combination of D-Lys6-GnRH and racemic Gossypol, and a conjugate of (D-Lys6)-GnRH, and racemic Gossypol alone on the proliferation of BLM human melanoma cells are depicted in FIG. 20 (A), (B) and (C), respectively. Results are expressed as mean cell number per plate±SE. *, p<0.05 vs. control (C).

Compound	growth of malignant gliomas [1]	inhibition of proliferation [2] [%]	anti-proliferative effects in tumor cells [3]	^125I-LHRH-A binding Capacity [4]	^125I-LHRH-A binding Capacity [5]	^125I-LHRH-A binding Capacity [6]	anti-proliferative effects in tumor cells [7]	inhibition of cellular proliferation versus controls (BLM human melanoma cells) [%]
CC(C)C[C@H](NC(=O)[C@@H](Cc1c[nH]c2ccccc12)NC(=O)[C@H](Cc1ccc(O)cc1)NC(=O)[C@H](CO)NC(=O)[C@H](Cc1c[nH]c2ccccc12)NC(=O)[C@H](Cc1c[nH]cn1)NC(=O)[C@@H]1CCC(=O)N1)C(=O)N[C@@H](CCCNC(=N)N)C(=O)N1CCC[C@H]1C(=O)NCC(N)=O [Triptorelin®]	Significant growth-inhibiting effects	40	Significant anti-proliferative effects	–	–	–	–	–
CC(C)C[C@H](NC(=O)[C@@H](COC(C)(C)C)NC(=O)[C@H](Cc1ccc(O)c(I)c1)NC(=O)[C@H](CO)NC(=O)[C@H](Cc1c[nH]c2ccccc12)NC(=O)[C@H](Cc1c[nH]cn1)NC(=O)[C@@H]1CCC(=O)N1)C(=O)N[C@@H](CCCNC(=N)N)C(=O)N1CCC[C@H]1C(=O)NNC(N)=O [^125I-LHRH-A] ([pGlu]HWS[Tyr(3-I)][dS](tBu)LRP[azaGly]-NH2; C-terminus assumed)	–	–	–	150-200 fmoles/mg protein	200-250 fmoles/mg protein	70-100 fmoles/mg protein	–	–
(D-Lys6)-GnRH	–	–	Significant anti-proliferative effects	–	–	–	Significant anti-proliferative effects	39
